Measurements reported in US20240122180A1, “FUNGICIDAL HALOMETHYL KETONES AND HYDRATES AND THEIR MIXTURES” (FMC Corporation, priority 2020, published 2024).

Columns and labels:
[1] = test system: Phakopsora pachyrhizi (the causal agent of Asian soybean rust); assay: Test A: preventive spray on soybean seedlings, visual disease rating (100 = 100% control; * 50 ppm, ** 10 ppm, *** 250 ppm); format: in vivo; conditions: soybean seedlings, 100 = 100% disease control
From the text: (§1) General protocol for preparing test suspensions for Tests A-E: the test compounds were first dissolved in acetone in an amount equal to 3% of the final volume and then suspended at the desired concentration (in ppm) in acetone and purified water (50/50 mix by volume) containing 250 ppm of the surfactant […] (polyhydric alcohol esters). The resulting test suspensions were then used in Tests A-E.
(§2) The test solution was sprayed to the point of run-off on soybean seedlings. The following day the seedlings were inoculated with a spore suspension of Phakopsora pachyrhizi (the causal agent of Asian soybean rust) and incubated in a saturated atmosphere at 22° C. for 24 h, and then moved to a growth chamber at 22° C. for 8 days, after which time visual disease ratings were made.
(§3) Results for Tests A-E are given in Table A. In the Table, a rating of 100 indicates 100% disease control and a rating of 0 indicates no disease control (relative to the controls). An asterisk “*” or a double asterisk “**” or a triple asterisk “***” next to the rating value indicates a 50 ppm, 10 ppm and 250 ppm test suspension was used, respectively. A dash (-) indicates the compound was not tested.

[2] = test system: Puccinia recondita f. sp. tritici (the causal agent of wheat leaf rust); assay: Test B: preventive spray on wheat seedlings, disease rating (100 = 100% control; * 50 ppm, ** 10 ppm, *** 250 ppm); format: in vivo; conditions: wheat seedlings, 100 = 100% disease control
From the text: as §1
as §2, with “wheat” for “soybean”, “Puccinia recondita f. sp. tritici” for “Phakopsora pachyrhizi”, “wheat leaf” for “Asian soybean”, “20°” for “22°”, “6” for “8”, “time” for “time visual”
as §3

SMILES | Test A disease control rating ([1]; 10 ppm test suspension) | Test B disease control rating ([2]; 10 ppm test suspension) | Test A disease control rating ([1]; 50 ppm test suspension) | Test B disease control rating ([2]; 50 ppm test suspension)
CCCO/C(=C\Oc1ccc(Cn2cc(C(=O)OCC)cn2)cc1)C(F)(F)F [compound 65] | 100% | 0% |  | 
CCOC(=O)c1cnn(Cc2ccc(CCC(O)(O)C(F)(F)F)cc2)c1 [compound 66] |  |  | 92% | 89%
CCOC(=O)c1cnn(Cc2ccc(CCC3(C(F)(F)F)OCCO3)cc2)c1 [compound 67] |  |  | 65% | 0%
CCO/C(=C\Oc1ccc(C(=O)O)cc1)C(F)(F)F [compound 72] |  |  | 13% | 0%
CCO/C(=C\Oc1ccc(C(=O)OC(C)C)cc1)C(F)(F)F [compound 73] | 0% | 0% |  | 
C=CCOC(=O)c1ccc(O/C=C(\OCC)C(F)(F)F)cc1 [compound 74] | 0% | 0% |  | 
C#CCOC(=O)c1ccc(O/C=C(\OCC)C(F)(F)F)cc1 [compound 75] | 0% | 0% |  | 
CC(C)CS(=O)(=O)NCc1ccc(OCC2(C(F)(F)F)OCCO2)cc1 [compound 76] | 0% | 0% |  | 
FC(F)(F)C1(COc2ccc(CNC(=S)NC3CCCCC3)cc2)OCCO1 [compound 77] | 99% | 0% |  | 
CCOC(=O)NCc1ccc(OCC2(C(F)(F)F)OCCO2)cc1 [compound 78] | 94% | 0% |  | 
CCO/C(=C\Oc1ccc(C(C)=O)cc1)C(F)(F)F [compound 79] |  |  | 0% | 0%
CCO/C(=C\Oc1ccc(Cn2ncnc2C#N)cc1)C(F)(F)F [compound 81] | 0% | 0% |  | 
CCO/C(=C\Oc1ccc(Cn2cnc(C#N)n2)cc1)C(F)(F)F [compound 82] | 97% | 0% |  | 
CCOC(=O)Cc1nnn(Cc2ccc(O/C=C(\OCC)C(F)(F)F)cc2)n1 [compound 83] | 82% | 0% |  | 
CCOC(=O)Cc1nnnn1Cc1ccc(O/C=C(\OCC)C(F)(F)F)cc1 [compound 84] | 0% | 0% |  | 
CCO/C(=C\Oc1ccc(Cn2cncc2C(=O)OC)cc1)C(F)(F)F [compound 85] | 89% | 0% |  | 
CCO/C(=C\Oc1ccc(Cn2cnc(C(=O)OC)c2)cc1)C(F)(F)F [compound 86] | 99% | 0% |  | 
CCO/C(=C\Oc1ccc(Cn2ncc3cccnc32)cc1)C(F)(F)F [compound 87] | 0% | 0% |  | 
CCO/C(=C\Oc1ccc(Cn2cc(C(=O)OC(C)(C)C)cn2)cc1)C(F)(F)F [compound 89] | 0% | 0% |  | 

SMILES | Test A disease control rating ([1]; 10 ppm test suspension) | Test B disease control rating ([2]; 10 ppm test suspension) | Test A disease control rating ([1]; 50 ppm test suspension) | Test B disease control rating ([2]; 50 ppm test suspension)
CCOC(=O)c1cc(OC)n(Cc2ccc(O/C=C(\OCC)C(F)(F)F)cc2)n1 [compound 90] | 100% | 0% |  | 
CCO/C(=C\Oc1ccc(Cn2cc(C(=O)OC)c3ccccc32)cc1)C(F)(F)F [compound 91] | 0% | 0% |  | 
CCO/C(=C\Oc1ccc(CN2OCC(C)(C)C2=O)cc1)C(F)(F)F [compound 92] | 0% | 0% |  | 
O=C(O)c1cnn(Cc2ccc(OCC3(C(F)(F)F)OCCO3)cc2)c1 [compound 93] | 96% | 0% |  | 
CCCOC(=O)c1ccc(O/C=C(\OCC)C(F)(F)F)cc1 [compound 94] | 0% | 0% |  | 
CCOC(=O)c1ccc(O/C=C(\OCC)C(F)(F)F)cc1 [compound 95] | 0% | 0% |  | 
CCOC(=O)C=CCOc1ccc(O/C=C(\OCC)C(F)(F)F)cc1 [compound 96] | 13% | 0% |  | 
CCOC(=O)C=CCOc1ccc(OCC(O)(O)C(F)(F)F)cc1 [compound 97] |  |  | 94% | 0%
CCO/C(=C\Oc1ccc(C(N)=O)cc1)C(F)(F)F [compound 99] | 0% | 80% |  | 
CCO/C(=C\Oc1ccc(C(=O)NC2CC2)cc1)C(F)(F)F [compound 100] | 0% | 0% |  | 
CCO/C(=C\Oc1ccc(C(=O)NC(C)C)cc1)C(F)(F)F [compound 101] | 0% | 0% |  | 
C#CCNC(=O)c1ccc(O/C=C(\OCC)C(F)(F)F)cc1 [compound 102] | 0% | 0% |  | 
C=CCNC(=O)c1ccc(O/C=C(\OCC)C(F)(F)F)cc1 [compound 103] | 0% | 0% |  | 
CCCNC(=O)c1ccc(O/C=C(\OCC)C(F)(F)F)cc1 [compound 104] | 0% | 80% |  | 
CCO/C(=C\Oc1ccc(C(=O)NC)cc1)C(F)(F)F [compound 105] | 0% | 68% |  | 
CCO/C(=C\Oc1ccc(Cn2cc(C(=O)NCC(F)(F)F)cn2)cc1)C(F)(F)F [compound 106] | 0% | 0% |  | 
CCO/C(=C\Oc1ccc(Cn2cc(C(=O)NCC#N)cn2)cc1)C(F)(F)F [compound 107] | 0% | 0% |  | 
CCO/C(=C\Oc1ccc(CN)cc1)C(F)(F)F [compound 110] |  |  | 79% | 0%
CCOC(=O)NCc1ccc(O/C=C(\OCC)C(F)(F)F)cc1 [compound 111] | 0% | 0% |  | 

SMILES | Test A disease control rating ([1]; 10 ppm test suspension) | Test B disease control rating ([2]; 10 ppm test suspension) | Test A disease control rating ([1]; 50 ppm test suspension) | Test B disease control rating ([2]; 50 ppm test suspension)
CC(C)COC(=O)NCc1ccc(OCC2(C(F)(F)F)OCCO2)cc1 [compound 112] | 0% | 0% |  | 
CCO/C(=C\Oc1ccc(CNC(=O)CC(F)(F)F)cc1)C(F)(F)F [compound 113] | 0% | 0% |  | 
CCO/C(=C\Oc1ccc(CNC(=O)C(C)OC)cc1)C(F)(F)F (stereo not shown) [compound 114] |  |  | 44% | 0%
CCO/C(=C\Oc1ccc(Cn2cc(C(=O)O)cn2)cc1)C(F)(F)F [compound 116] | 100% | 0% |  | 
CCO/C(=C\Oc1ccc(Cn2cc(C(=O)NCC3CC3)cn2)cc1)C(F)(F)F [compound 117] | 23% | 0% |  | 
CCOC(=O)c1cnn(Cc2ccc(O/C=C(\OCC)C(F)(F)F)cc2)n1 [compound 119] | 97% | 0% |  | 
CCOC(=O)c1cn(Cc2ccc(O/C=C(\OCC)C(F)(F)F)cc2)nn1 [compound 121] | 100% | 0% |  | 
CCO/C(=C\Oc1ccc(Cn2ncnc2C(=O)OC)cc1)C(F)(F)F [compound 122] | 0% | 0% |  | 
CCO/C(=C\Oc1ccc(Cn2cnc(C(=O)OC)n2)cc1)C(F)(F)F [compound 123] | 98% | 0% |  | 
CCCCOC(=O)c1cnn(Cc2ccc(OCC3(C(F)(F)F)OCCO3)cc2)c1 [compound 125] | 100% | 0% |  | 
CCO/C(=C\Oc1ccc(Cc2nc(C(=O)NCC(F)(F)F)cs2)cc1)C(F)(F)F [compound 129] | 100% | 0% |  | 
CCO/C(=C\Oc1ccc(Cc2nc(C(=O)NCC3CC3)cs2)cc1)C(F)(F)F [compound 130] | 100% | 0% |  | 
CCOC(=O)c1cnn(CCc2ccc(OCC(O)(O)C(F)(F)F)cc2)c1 [compound 131] |  |  | 99% | 86%
CCOC(=O)c1cnn(CCc2ccc(OCC3(C(F)(F)F)OCCO3)cc2)c1 [compound 133] | 79% | 0% |  | 
O=C(OCC(F)(F)F)c1cnn(Cc2ccc(OCC3(C(F)(F)F)OCCO3)cc2)c1 [compound 134] | 89% | 32% |  | 
CCOC(=O)c1csc(Cc2ccc(OCC3(C(F)(F)F)OCCO3)cc2)n1 [compound 137] | 79% | 0% |  | 
CCO/C(=C\Oc1ccc(Cn2cc(C(=O)OC(C)C)cn2)cc1)C(F)(F)F [compound 139] | 100% | 0% |  | 
CCOC(=O)c1cnn(Cc2ccc(C/C=C(\OCC)C(F)(F)F)cc2)c1 [compound 140] | 98% | 23% |  | 
